Test results from article PMC7710685 (Frontiers in Neuroscience, 2020).
“And” between values parts separate entries of the source, which are not always exact repeats. Identical values can stand only once. Like-named read-outs stand apart in the source and are kept apart here.

Experiments:
[1] = system: α2β2γ3 receptor; experiment: Literature: efficacy and potency of zaleplon at α2β2γ3 receptor; assay type: cell-based; settings: literature α2β2γ3 EC50 vs this paper's α1β2γ3 EC50
[2] = target: T1, human α1β2γ1 GABAA receptors (Homo sapiens, UniProt P14867+P47870+Q8N1C3); settings: γ1 (α1β2γ1); for Modulation at 10 μM: 10 μM co-applied with GABA EC10, percentage potentiation of GABA EC10; for EC50: co-applied with GABA EC10; for Log(EC50): logarithm of EC50, mean ± SD; for Emax (%): percent of current through GABA EC10, Hill fit, 0.1 nM-10 μM
T1 sequence (Q8N1C3 36-465): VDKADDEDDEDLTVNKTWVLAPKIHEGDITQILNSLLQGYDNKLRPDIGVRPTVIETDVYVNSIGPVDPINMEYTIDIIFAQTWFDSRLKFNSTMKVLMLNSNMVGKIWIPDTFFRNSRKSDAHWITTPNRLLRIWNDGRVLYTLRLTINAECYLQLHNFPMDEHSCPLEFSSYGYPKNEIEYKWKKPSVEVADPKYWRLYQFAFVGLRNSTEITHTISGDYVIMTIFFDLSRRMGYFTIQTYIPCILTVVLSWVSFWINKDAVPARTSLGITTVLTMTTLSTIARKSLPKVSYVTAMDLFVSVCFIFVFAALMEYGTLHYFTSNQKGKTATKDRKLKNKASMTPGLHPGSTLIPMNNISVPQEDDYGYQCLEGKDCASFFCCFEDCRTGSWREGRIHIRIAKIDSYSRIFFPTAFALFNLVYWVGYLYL
T1 sequence (P47870 25-512 limits assumed): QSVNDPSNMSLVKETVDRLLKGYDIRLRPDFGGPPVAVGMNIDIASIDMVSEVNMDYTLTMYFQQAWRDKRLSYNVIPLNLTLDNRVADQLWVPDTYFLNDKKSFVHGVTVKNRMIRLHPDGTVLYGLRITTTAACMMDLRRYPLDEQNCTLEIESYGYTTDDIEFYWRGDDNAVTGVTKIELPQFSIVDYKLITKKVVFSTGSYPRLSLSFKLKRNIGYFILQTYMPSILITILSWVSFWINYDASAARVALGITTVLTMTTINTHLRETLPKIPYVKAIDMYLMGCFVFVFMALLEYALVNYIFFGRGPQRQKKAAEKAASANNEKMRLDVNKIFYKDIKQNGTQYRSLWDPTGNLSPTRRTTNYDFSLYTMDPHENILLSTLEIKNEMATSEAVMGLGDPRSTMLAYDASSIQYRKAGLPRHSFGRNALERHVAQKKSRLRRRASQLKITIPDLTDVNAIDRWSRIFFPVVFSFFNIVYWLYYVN
T1 sequence (P14867 28-456): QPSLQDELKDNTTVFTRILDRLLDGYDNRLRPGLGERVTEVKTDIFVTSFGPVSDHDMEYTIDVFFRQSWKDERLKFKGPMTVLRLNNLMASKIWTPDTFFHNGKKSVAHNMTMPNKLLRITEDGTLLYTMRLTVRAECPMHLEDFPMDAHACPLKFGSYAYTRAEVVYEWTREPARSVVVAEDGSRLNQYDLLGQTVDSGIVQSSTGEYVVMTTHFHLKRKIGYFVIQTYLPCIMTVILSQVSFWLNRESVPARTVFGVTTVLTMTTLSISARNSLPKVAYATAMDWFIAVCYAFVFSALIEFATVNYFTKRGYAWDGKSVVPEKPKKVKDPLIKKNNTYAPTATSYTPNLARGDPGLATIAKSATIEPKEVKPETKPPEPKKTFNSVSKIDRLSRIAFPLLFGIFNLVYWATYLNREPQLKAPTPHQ
Source text: (§1) To ensure homogenous receptor populations and subunit orientation, we used concatenated receptors expressed in X. laevis oocytes. Concatenated pentameric constructs were created using the subunits γx-β2-α1-β2-α1 (where x = 1, 2, or 3). […] Briefly, natural restriction sites BamHI, HindIII, and KpnI restriction sites in the γ1, 2, 3, β2, or α1 subunits were removed through silent mutations using site-directed mutagenesis. […] Inserted linker lengths are as follows γx-13a-β2-27a-α1-18a-β2-27a-α1.
(§2) The collection and preparation of oocytes were done as previously described ([Ahring et al., 2016]). […] Oocytes were prepared by slicing lobes into small pieces and defolliculated through collagenase A treatment. Stage V and VI oocytes were injected with around 50 nL of 0.5 ng/nL RNA for each concatenated construct or α1/β2 subunits in a 1:1 ratio and incubated for 3–4 days at 18°C in modified Barth’s solution (96 mM NaCl, 2.0 mM KCl, 1 mM MgCl2, 1.8 mM CaCl2, 5 mM HEPES, 2.5 mM sodium pyruvate, 0.5 mM theophylline, and 100 μg/mL gentamicin; pH 7.4).
(§3) This technique was performed as previously described ([Ahring et al., 2016], [2018]; [Liao et al., 2019]). Briefly, oocytes sit in a custom-built chamber and continuously perfused with a saline solution, ‘ND96’ (96 mM NaCl, 2 mM KCl, 1 mM MgCl2, 1.8 mM CaCl2, and 10 mM HEPES; pH 7.4). Glass electrode pipettes were filled with 3 M KCl, with resistances ranging from 0.4 to 2 MΩ. Oocytes were clamped to −60 mV using an Axon GeneClamp 500B amplifier (Molecular Devices). Currents were filtered at 20 Hz with a four-pole low pass Bessel filter (Axon GeneClamp 500 B) and digitized by a Digidata 1440A (Molecular Devices). Sampling was taken at 200 Hz and analyzed using pClamp 10.2 suite (Molecular Devices).
(§4) Each recording day, a fresh stock was used to prepare dilutions. The maximal concentration of DMSO in final drug ND96 solutions was <0.1%.
(§5) The drug modulation experiments were done as follows.
(§6) The final dataset was from a minimum of four experiments and a minimum of two different X. laevis donors. Raw traces were analyzed using pClamp 10.2. Episodic traces for each application were overlaid and the baseline was subtracted. Peak current amplitude was quantified by measuring maximum inward current for each response. Peak current amplitudes (I) were fitted to the Hill equation and normalized to the maximal fitted response (Imax). […] The Emax response and EC50 values were calculated by using non-linear regression to fit the data to the Hill equation in a monophasic model with three variables (top, bottom, EC50) using GraphPad Prism 8. Efficacy at infinitely low compound concentration was set to 0, and the slope was constrained to 1. Means are reported ± one SD.

[3] = target: T2, human α1β2γ2 GABAA receptors (Homo sapiens, UniProt P14867+P18507+P47870); settings: γ2 (α1β2γ2); for Modulation at 10 μM: 10 μM co-applied with GABA EC10, percentage potentiation of GABA EC10; for Emax (%): percent of current through GABA EC10, Hill fit
Source text: as §1, §2, §3, §4, §5, §6

[4] = target: T3, human α1β2γ3 GABAA receptors (Homo sapiens, UniProt P14867+P47870+Q99928); settings: for fold greater potency at γ3 receptors compared with γ2: EC50 α1β2γ2 vs α1β2γ3; for Modulation at 10 μM: 10 μM co-applied with GABA EC10, percentage potentiation of GABA EC10; for Emax (%): percent of current through GABA EC10, Hill fit
T3 sequence (Q99928 18-467): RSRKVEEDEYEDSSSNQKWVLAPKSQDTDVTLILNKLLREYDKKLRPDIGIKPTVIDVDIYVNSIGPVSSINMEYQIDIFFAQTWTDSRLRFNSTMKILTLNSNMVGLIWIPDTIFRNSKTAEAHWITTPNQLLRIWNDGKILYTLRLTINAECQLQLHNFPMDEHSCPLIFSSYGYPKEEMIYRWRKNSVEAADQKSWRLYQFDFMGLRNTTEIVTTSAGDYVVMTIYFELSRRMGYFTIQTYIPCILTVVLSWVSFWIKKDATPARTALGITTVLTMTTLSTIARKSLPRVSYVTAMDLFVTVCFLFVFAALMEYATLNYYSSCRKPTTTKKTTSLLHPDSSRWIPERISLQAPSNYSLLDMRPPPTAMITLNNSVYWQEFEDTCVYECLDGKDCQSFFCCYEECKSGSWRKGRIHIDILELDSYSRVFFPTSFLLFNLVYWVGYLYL
T3 sequence (P47870 25-512 limits assumed): T1 sequence (P47870 25-512 limits assumed)
T3 sequence (P14867 28-456): T1 sequence (P14867 28-456)
Source text: as §1, §2, §3, §4, §5, §6

[5] = target: T4, human binary α1β2 GABAA receptors (Homo sapiens, UniProt P14867+P47870); settings: 10 μM co-applied with GABA EC10, percentage potentiation of GABA EC10
T4 sequence (P14867 28-456): T1 sequence (P14867 28-456)
T4 sequence (P47870 25-512 limits assumed): T1 sequence (P47870 25-512 limits assumed)
Procedure: as §2
This technique was performed as previously described ([Ahring et al., 2016], [2018]; [Liao et al., 2019]). Briefly, oocytes sit in a custom-built chamber and continuously perfused with a saline solution, ‘ND96’ (96 mM NaCl, 2 mM KCl, 1 mM MgCl2, 1.8 mM CaCl2, and 10 mM HEPES; pH 7.4). […] Sampling was taken at 200 Hz and analyzed using pClamp 10.2 suite (Molecular Devices). […]
(§7) The final dataset was from a minimum of four experiments and a minimum of two different X. laevis donors. Raw traces were analyzed using pClamp 10.2. […] Peak current amplitude was quantified by measuring maximum inward current for each response. […] The Emax response and EC50 values were calculated by using non-linear regression to fit the data to the Hill equation in a monophasic model with three variables (top, bottom, EC50) using GraphPad Prism 8. […]

[6] = target: α2β2γ3 receptor; settings: earlier study, no reference given; cited from earlier work
[7] = system: γ3 GABAA receptors; settings: 1999, cited from earlier work; for binding affinity with γ3 compared with γ2: competitive binding using Ro15-4513, ref Dämgen and Lüddens
[8] = target: T2, human α1β2γ2 GABAA receptors; experiment: cell-based; settings: for EC50: EC50, γ2 (α1β2γ2), co-applied with GABA EC10; for Emax: γ2 (α1β2γ2), percent of current through GABA EC10, Hill fit
Source text: as §1, §2, §3, §4, §5, §6

[9] = target: T3, human α1β2γ3 GABAA receptors; experiment: cell-based; settings: for EC50: EC50, γ3 (α1β2γ3), co-applied with GABA EC10
Source text: as §1, §2, §3, §4, §5, §6

[10] = target: recombinant α1β2γ3 GABAA receptors; set-up: method as in Lippa et al., 2005; settings: ref Lippa et al., 2005, cited from earlier work
[11] = system: α1β2γ3 receptors; set-up: method as in Davies et al., 2000; settings: ref Davies et al., 2000; cited from earlier work
[12] = target: α1βγ1 receptors; settings: HEK293 cells expressing α1βγ1, cited from earlier work
[13] = system: α1βγ1 receptors; set-up: method as in Khom et al., 2006; settings: α1βγ1 in X. laevis oocytes, ref Khom et al., 2006, cited from earlier work
[14] = system: α2βγ1 receptors; set-up: method as in Wafford et al., 1993; Mckernan et al., 1995; settings: α2βγ1 in X. laevis oocytes, ref Wafford et al., 1993, Mckernan et al., 1995, cited from earlier work
[15] = system: γ1-containing receptors; set-up: method as in Benke et al., 1996; settings: ref Benke et al., 1996; cited from earlier work
[16] = target: T1, human α1β2γ1 GABAA receptors; settings: γ1; GABA concentration-response
Source text: (§8) To ensure homogenous receptor populations and subunit orientation, we used concatenated receptors expressed in X. laevis oocytes. Concatenated pentameric constructs were created using the subunits γx-β2-α1-β2-α1 (where x = 1, 2, or 3).
(§9) The collection and preparation of oocytes were done as previously described ([Ahring et al., 2016]). Briefly, ovarian lobes were removed from anesthetized adult X. laevis following protocol approval by the Animal Ethics Committee of The University of Sydney (AEC No. 2016/970) in accordance with the National Health and Medical Research Council of Australia code for the care and use of animals. […]
(§10) This technique was performed as previously described ([Ahring et al., 2016], [2018]; [Liao et al., 2019]). […] Sampling was taken at 200 Hz and analyzed using pClamp 10.2 suite (Molecular Devices).
(§11) Applications lasted for 30 s and were followed by 2–5 min of washout. EC50 and EC10 were calculated from this curve.
as §7

[17] = target: T2, human α1β2γ2 GABAA receptors; experiment: GABA concentration-response, concatenated α1β2γ2 receptors in oocytes; assay type: cell-based; set-up: expressed in transfected cells; host or cells: Xenopus laevis oocytes injected with cRNA of the concatenated construct; settings: γ2
Source text: as §8, §9, §10, §11, §7

T2 sequence (P18507 40-475, one chain of several): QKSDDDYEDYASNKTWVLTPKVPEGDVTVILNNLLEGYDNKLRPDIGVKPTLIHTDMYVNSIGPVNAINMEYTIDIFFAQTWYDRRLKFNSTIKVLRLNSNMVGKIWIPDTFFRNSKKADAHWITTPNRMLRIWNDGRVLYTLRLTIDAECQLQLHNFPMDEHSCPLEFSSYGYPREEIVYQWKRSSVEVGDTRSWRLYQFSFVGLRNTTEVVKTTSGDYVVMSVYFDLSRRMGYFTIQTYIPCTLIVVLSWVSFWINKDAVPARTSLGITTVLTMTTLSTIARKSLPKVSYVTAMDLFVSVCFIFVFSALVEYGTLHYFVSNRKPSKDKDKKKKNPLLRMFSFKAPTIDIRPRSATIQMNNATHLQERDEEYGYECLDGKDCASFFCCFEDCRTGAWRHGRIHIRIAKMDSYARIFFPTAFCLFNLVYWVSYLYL

CCN(C(C)=O)c1cccc(-c2ccnc3c(C#N)cnn23)c1 [Zaleplon, zaleplon]
fold less potency at α2β2γ3 than seen on α1β2γ3 [1]: 10 fold | Modulation at 10 μM [2]: 126 ± 3% | Modulation at 10 μM ([2]; listed as zaleplon): 125% | EC50 [2]: No fit | Log(EC50) [2]: No fit | Emax (%) [2]: No fit | Modulation at 10 μM [3]: 305 ± 59% | fold greater potency at γ3 receptors compared with γ2 [4]: ~4 fold | fold greater potency at γ3 receptors compared with γ2 ([4]; listed as zaleplon): four-fold increase in potency | Modulation at 10 μM ([4]; γ3 (α1β2γ3)): 262 ± 53% | Modulation at 10 μM, (I-Ic)/Ic [5]: 25% | EC50 [6]: ~500 nM | binding affinity with γ3 compared with γ2 [7]: eightfold higher affinity | EC50 [8]: 203 nM | Emax [8]: 307 ± 34% | Emax [9]: 277 ± 26% | EC50 [9]: 56 nM

CN1C(=O)CN=C(c2ccccc2)c2cc(Cl)ccc21 [Diazepam, diazepam]
Modulation at 10 μM [2]: 43 ± 6% | Modulation at 10 μM ([2]; listed as diazepam): 40% | Emax (%) [2]: No fit | Modulation at 10 μM [3]: 272 ± 46% | Modulation at 10 μM ([4]; γ3 (α1β2γ3)): 156 ± 35% | EC50 ([10]; recombinant α1β2γ3): 1950 nM | Emax α1β2γ2 vs. α1β2γ3 [10]: no reduction in Emax | Emax [8]: 284 ± 23% | Emax [9]: 168 ± 24%

CN1CCN(C(=O)OC2c3nccnc3C(=O)N2c2ccc(Cl)cn2)CC1 (stereo not drawn) [zopiclone]
binding affinity with γ3 compared with γ2 [7]: marginal reduction in binding affinity | efficacy and potency at α1β2γ3 compared with α1β2γ2 [11]: comparable efficacy and potency

Cc1ccc(-c2nc3ccc(C)cn3c2CC(=O)N(C)C)cc1 [Zolpidem, zolpidem]
Modulation at 10 μM [2]: 15 ± 6% | Modulation at 10 μM ([2]; listed as zolpidem): 15% | Emax (%) [2]: No fit | Modulation at 10 μM [3]: 484 ± 124% | Emax (%) [3]: 487 ± 66% | Modulation at 10 μM ([4]; γ3 (α1β2γ3)): 101 ± 37% | Emax (%) ([4]; γ3 (α1β2γ3)): No fit | binding to the classical γ3 receptor benzodiazepine site ([7]; competition with flunitrazepam or Ro-154513, ref Herb et al., 1992, Lüddens et al., 1994, Tögel et al., Hadingham et al., 1995, Sieghart, Dämgen and Lüddens): no binding | EC50 ([12]; ref Esmaeili et al., 2009): ~200 nM | potentiation ([12]; ref Puia et al., 1991): 50–75% | maximum efficacy [13]: ≤ 20% | maximum efficacy ([13]; listed as zolpidem): below 20% | maximum efficacy [14]: ≤ 20% | maximum efficacy ([14]; listed as zolpidem): below 20% | binding [15]: no binding | Emax [8]: 475 to 550%

NCCCC(=O)O [GABA, γ-Aminobutyric-acid]
Hill slope [16]: 1.22 ± 0.32 | Hill slope [17]: 1.19 ± 0.55

CCCN(CCC)C(=O)Cc1c(-c2ccc(Cl)cc2)nc2ccc(Cl)cn12 [Alpidem, alpidem]
Modulation at 10 μM [2]: 40% | EC50 [2]: No fit | Log(EC50) [2]: No fit | Emax (%) [2]: No fit | Modulation at 10 μM [3]: 542 ± 176% | Emax (%) [3]: 512 ± 80% | Emax (%) ([3]; listed as alpidem): 475–550% | Modulation at 10 μM ([4]; γ3 (α1β2γ3)): 126 ± 16% | EC50 ([4]; γ3 (α1β2γ3), co-applied with GABA EC10): No fit | Log(EC50) ([4]; γ3 (α1β2γ3), logarithm of EC50, mean ± SD): No fit | Emax (%) ([4]; γ3 (α1β2γ3)): No fit | EC50 [8]: 500 nM and 502 nM

CC(=O)N(C)c1cccc(-c2ccnc3c(C(=O)c4cccs4)cnn23)c1 [Indiplon, indiplon]
Modulation at 10 μM [2]: 22 ± 7% | EC50 [2]: No fit | Log(EC50) [2]: No fit | Emax (%) [2]: No fit | Modulation at 10 μM [3]: 238 ± 31% | fold greater potency for γ2 vs. γ3 (fold reduction in potency when γ3 replaces γ2) ([4]; EC50 α1β2γ3 vs α1β2γ2): ~4 fold | Modulation at 10 μM ([4]; γ3 (α1β2γ3)): 249 ± 14% | EC50 [8]: 10 nM and 13.1 nM | Emax [8]: 231 ± 18% | Emax [9]: 263 ± 18% | EC50 [9]: 45 nM and 47.8 nM

CN1CCN(C(=O)O[C@H]2c3nccnc3C(=O)N2c2ccc(Cl)cn2)CC1 [Eszopiclone, eszopiclone]
Modulation at 10 μM [2]: 18 ± 19% | Modulation at 10 μM ([2]; listed as eszopiclone): 20% | EC50 [2]: No fit | Log(EC50) [2]: No fit | Emax (%) [2]: No fit | Modulation at 10 μM [3]: 349 ± 70% | fold reduction in Emax when γ3 replaced γ2 ([4]; Emax α1β2γ2 vs α1β2γ3): 1.5 fold | Modulation at 10 μM ([4]; γ3 (α1β2γ3)): 199 ± 26% | EC50 [8]: 301 nM | Emax [8]: 356 ± 37% | Emax [9]: 207 ± 20% | EC50 [9]: 554 nM
